Experimental data published in patent US20240269086A1, “PERGULARIA TOMENTOSA SILVER NANOPARTICLES” (KING FAISAL UNIVERSITY, priority 2023, published 2024).

What was measured:
Assay in all cases: Agar disk diffusion, inhibition zone diameter
Format in all cases: cell-based
B. cereus = details: 25 μg/ml, Nil = No growth
Source text: (§1) The agar disk diffusion method was used to investigate the antibacterial activity of the PT-AgNPs against four bacterial strains.

S. aureus = details: 25 μg/ml, Nil = No growth
Source text: as §1

E. coli = details: 25 μg/ml, Nil = No growth
Source text: as §1

S. enteritidis = details: 6.25 μg/ml (by grid column), Nil = No growth
Source text: as §1

Measured: IZD (mm)

O=C(N[C@H](CO)[C@H](O)c1ccc([N+](=O)[O-])cc1)C(Cl)Cl [Chloramphenicol]
Nil: all assays above
